Source: patent US20240116951A1, “HETEROCYCLIC COMPOUNDS AND USES THEREOF” (Kumquat Biosciences Inc., priority 2022, published 2024)

Tests used:
Type in all cases: binding
KRAS G12S = target: T1, KRAS G12S (Homo sapiens, UniProt P01116, G12S); assay: HTRF assay of K-Ras G12S interaction with SOS1 (PPI-HTRF); conditions: 5 nM KRAS G12S, read-out: PPI-HTRF-5 nM KRAS G12S
T1 construct: made in house; host or cells: E. coli, e.g. BL21 (DE3)
Procedure, shortened: (§1)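 Equilibrium binding between GST-K-Ras and His-tagged human SOS1 is measured by FRET from a europium anti-GST donor to an XL665 anti-His acceptor. Compounds are run in duplicate at 10, 2.5, 0.63, 0.16, 0.04 and 0.01 μM, and IC50 is calculated from the 665/620 nm ratio.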

KRAS G12D = target: T2, KRAS G12D (Homo sapiens, UniProt P01116, G12D); assay: HTRF assay of K-Ras G12D interaction with SOS1 (PPI-HTRF); conditions: HTRF, 5 nM KRAS G12D; read-out: PPI-HTRF-5 nM KRAS G12D
T2 construct: made in house; host or cells: E. coli, e.g. BL21 (DE3)
Procedure, shortened: as §1

KRAS WT = target: T3, KRAS WT (Homo sapiens, UniProt P01116); assay: HTRF assay of wildtype K-Ras interaction with SOS1 (PPI-HTRF); conditions: HTRF, 5 nM KRAS WT; read-out: PPI-HTRF-5 nM KRAS WT
T3 construct: made in house; host or cells: E. coli, e.g. BL21 (DE3)
Procedure, shortened: as §1

T3 sequence (P01116 1-188 isoform P01116-2): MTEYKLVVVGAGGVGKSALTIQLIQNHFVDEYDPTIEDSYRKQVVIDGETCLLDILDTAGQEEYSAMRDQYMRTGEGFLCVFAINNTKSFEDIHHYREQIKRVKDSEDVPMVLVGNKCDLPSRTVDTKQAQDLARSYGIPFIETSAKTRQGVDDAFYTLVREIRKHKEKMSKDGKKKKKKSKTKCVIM
T2 sequence (P01116 1-188 isoform P01116-2 G12D): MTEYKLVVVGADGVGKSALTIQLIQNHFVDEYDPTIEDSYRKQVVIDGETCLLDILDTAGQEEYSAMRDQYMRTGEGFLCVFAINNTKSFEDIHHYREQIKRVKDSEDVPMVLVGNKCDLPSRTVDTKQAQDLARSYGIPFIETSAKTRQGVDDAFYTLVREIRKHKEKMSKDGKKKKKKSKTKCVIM
T1 sequence (P01116 1-188 isoform P01116-2 G12S): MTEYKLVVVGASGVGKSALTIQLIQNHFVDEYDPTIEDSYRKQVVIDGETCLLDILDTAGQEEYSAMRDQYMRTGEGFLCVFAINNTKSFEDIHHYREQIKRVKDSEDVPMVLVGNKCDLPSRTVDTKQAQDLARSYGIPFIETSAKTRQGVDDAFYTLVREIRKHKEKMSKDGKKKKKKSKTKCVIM

Row | IC50 (KRAS G12S) [µM] | IC50 (KRAS G12D) [µM] | IC50 (KRAS WT) [µM] | Compound
1 | < 5 | < 5 | < 5 | CN(C)CC1(COc2nc(N3CCC4(CCN4C(=O)n4cncn4)C3)c3cc(Cl)c(-c4ccc(F)c5sc(N)c(C#N)c45)c(F)c3n2)CC1 (stereo not drawn) [Compound 315, 4-(4-(1-(1H-1,2,4-triazole-1-carbonyl)-1,6-diazaspiro[3.4]octan-6-yl)-6-chloro-2-((1-((dimethylamino)methyl)cyclopropyl)methoxy)-8-fluoroquinazolin-7-yl)-2-amino-7-fluorobenzo[b]thiophene-3-carbonitrile]
2 | < 5 | < 5 | < 5 | Nc1nc2c(-c3c(Cl)cc4c(N5CCCC6(CCN6)C5)nc(OC[C@@]56CCCN5C[C@H](F)C6)nc4c3F)ccc(F)c2s1 (stereo partly drawn) [Compound 202, 4-(6-chloro-8-fluoro-2-(((2R,7aS)-2-fluorotetrahydro-1H-pyrrolizin-7a(5H)-yl)methoxy)-4-(1,6-diazaspiro[3.5]nonan-6-yl)quinazolin-7-yl)-7-fluorobenzo[d]thiazol-2-amine]
3 | < 5 | < 5 | < 5 | Cc1nc(C(C)C)nn1C(=O)N1CCOCC12CCN(c1nc(OC[C@@]34CCCN3C[C@H](F)C4)nc3c(F)c(-c4ccc(F)c5sc(N)c(C#N)c45)c(Cl)cc13)C2 (stereo partly drawn) [Compound 337, 2-Amino-4-(6-chloro-8-fluoro-2-(((2R,7aS)-2-fluorotetrahydro-1H-pyrrolizin-7a(5H)-yl)methoxy)-4-(6-(3-isopropyl-5-methyl-1H-1,2,4-triazole-1-carbonyl)-9-oxa-2,6-diazaspiro[4.5]decan-2-yl)quinazolin-7-yl)-7-fluorobenzo[b]thiophene-3-carbonitrile]
4 | < 5 | < 5 | < 5 | N#Cc1c(N)sc2c(F)ccc(-c3c(Cl)cc4c(N5CCC6(CCN6C(=O)n6nccn6)C5)nc(OC[C@@]56CCCN5C[C@H](F)C6)nc4c3F)c12 (stereo partly drawn) [Compound 300, 4-(4-(1-(2H-1,2,3-triazole-2-carbonyl)-1,6-diazaspiro[3.4]octan-6-yl)-6-chloro-8-fluoro-2-(((2R,7aS)-2-fluorotetrahydro-1H-pyrrolizin-7a(5H)-yl)methoxy)quinazolin-7-yl)-2-amino-7-fluorobenzo[b]thiophene-3-carbonitrile]
5 | < 5 | < 5 | < 5 | C[C@H]1CN(C(=O)n2cnc(Br)n2)[C@]12CCN(c1nc(OC[C@@]34CCCN3C[C@H](F)C4)nc3c(F)c(-c4ccc(F)c5sc(N)c(C#N)c45)c(Cl)cc13)C2 [Compound 224, 2-amino-4-(4-((3S,4R)-1-(3-bromo-1H-1,2,4-triazole-1-carbonyl)-3-methyl-1,6-diazaspiro[3.4]octan-6-yl)-6-chloro-8-fluoro-2-(((2R,7aS)-2-fluorotetrahydro-1H-pyrrolizin-7a(5H)-yl)methoxy)quinazolin-7-yl)-7-fluorobenzo[b]thiophene-3-carbonitrile]
6 | < 5 | < 5 | < 5 | N#Cc1c(N)sc2c(F)ccc(-c3c(Cl)cc4c(N5CCC6(CCCCN6C(=O)n6cncn6)C5)nc(OC[C@@]56CCCN5C[C@H](F)C6)nc4c3F)c12 (stereo partly drawn) [Compound 216, 4-(4-(6-(1H-1,2,4-triazole-1-carbonyl)-2,6-diazaspiro[4.5]decan-2-yl)-6-chloro-8-fluoro-2-(((2R,7aS)-2-fluorotetrahydro-1H-pyrrolizin-7a(5H)-yl)methoxy)quinazolin-7-yl)-2-amino-7-fluorobenzo[b]thiophene-3-carbonitrile]
7 | < 5 | < 5 | < 5 | Cc1nc(C)n(C(=O)N2CCC23CCN(c2nc(OC[C@@]45CCCN4C[C@H](F)C5)nc4c(F)c(-c5ccc(F)c6sc(N)c(C#N)c56)c(Cl)cc24)C3)n1 (stereo partly drawn) [Compound 226, 2-amino-4-(6-chloro-4-(1-(3,5-dimethyl-1H-1,2,4-triazole-1-carbonyl)-1,6-diazaspiro[3.4]octan-6-yl)-8-fluoro-2-(((2R,7aS)-2-fluorotetrahydro-1H-pyrrolizin-7a(5H)-yl)methoxy)quinazolin-7-yl)-7-fluorobenzo[b]thiophene-3-carbonitrile]
8 | < 5 | < 5 | < 5 | C=CC(=O)N1CC[C@@]12CCN(c1nc(OC[C@@]34CCCN3C[C@H](F)C4)nc3c(F)c(-c4ccc(F)c5sc(N)c(C#N)c45)c(Cl)cc13)C2 [Compound 291]
9 | < 5 | < 5 | < 5 | Nc1nc2c(-c3c(Cl)cc4c(N5CC6(CNCCN6)C5)nc(OC[C@@]56CCCN5C[C@H](F)C6)nc4c3F)ccc(F)c2s1 [Compound 205, 4-(6-chloro-8-fluoro-2-(((2R,7aS)-2-fluorotetrahydro-1H-pyrrolizin-7a(5H)-yl)methoxy)-4-(2,5,8-triazaspiro[3.5]nonan-2-yl)quinazolin-7-yl)-7-fluorobenzo[d]thiazol-2-amine]
10 | < 5 | < 5 | < 5 | N#Cc1c(N)sc2c(F)ccc(-c3c(Cl)cc4c(N5CCC6(CCCN6C(=O)C6CC6(F)F)C5)nc(OC[C@@]56CCCN5C[C@H](F)C6)nc4c3F)c12 (stereo partly drawn) [Compound 217, 2-amino-4-(6-chloro-4-(1-(2,2-difluorocyclopropane-1-carbonyl)-1,7-diazaspiro[4.4]nonan-7-yl)-8-fluoro-2-(((2R,7aS)-2-fluorotetrahydro-1H-pyrrolizin-7a(5H)-yl)methoxy)quinazolin-7-yl)-7-fluorobenzo[b]thiophene-3-carbonitrile]
11 | < 5 | < 5 | < 5 | N#Cc1c(N)sc2c(F)ccc(-c3c(Cl)cc4c(N5CCC6(CCN6C(=O)n6cnnn6)C5)nc(OC[C@@]56CCCN5C[C@H](F)C6)nc4c3F)c12 (stereo partly drawn) [Compound 293, 4-(4-(1-(1H-tetrazole-1-carbonyl)-1,6-diazaspiro[3.4]octan-6-yl)-6-chloro-8-fluoro-2-(((2R,7aS)-2-fluorotetrahydro-1H-pyrrolizin-7a(5H)-yl)methoxy)quinazolin-7-yl)-2-amino-7-fluorobenzo[b]thiophene-3-carbonitrile]
12 | < 5 | < 5 | < 5 | N#Cc1c(N)sc2c(F)ccc(-c3c(Cl)cc4c(N5CC6(CCN6C(=O)C6CC6(F)F)C5)nc(OC[C@@]56CCCN5C[C@H](F)C6)nc4c3F)c12 (stereo partly drawn) [Compound 340, 2-amino-4-(6-chloro-4-(1-(2,2-difluorocyclopropane-1-carbonyl)-1,6-diazaspiro[3.3]heptan-6-yl)-8-fluoro-2-(((2R,7aS)-2-fluorotetrahydro-1H-pyrrolizin-7a(5H)-yl)methoxy)quinazolin-7-yl)-7-fluorobenzo[b]thiophene-3-carbonitrile]
13 | < 5 | < 5 | < 5 | C[C@H](Oc1nc(N2CCCC3(CCN3C(=O)c3ccnn3C)C2)c2cc(Cl)c(-c3ccc(F)c4sc(N)c(C#N)c34)c(F)c2n1)[C@@H]1CCCN1C (stereo partly drawn) [Compound 282, 2-amino-4-(6-chloro-8-fluoro-4-(1-(1-methyl-1H-pyrazole-5-carbonyl)-1,6-diazaspiro[3.5]nonan-6-yl)-2-((S)-1-((S)-1-methylpyrrolidin-2-yl)ethoxy)quinazolin-7-yl)-7-fluorobenzo[b]thiophene-3-carbonitrile]
14 | < 5 | < 5 | < 5 | N#Cc1c(N)sc2c(F)ccc(-c3c(F)c4nc(OC[C@@]56CCCN5C[C@H](F)C6)nc(N5CCC6(CCN6)C5)c4c(=O)n3C3CC3)c12 (stereo partly drawn) [Compound 333, 2-amino-4-(6-cyclopropyl-8-fluoro-2-(((2R,7aS)-2-fluorotetrahydro-1H-pyrrolizin-7a(5H)-yl)methoxy)-5-oxo-4-(1,6-diazaspiro[3.4]octan-6-yl)-5,6-dihydropyrido[4,3-d]pyrimidin-7-yl)-7-fluorobenzo[b]thiophene-3-carbonitrile]
15 | < 5 | < 5 | < 5 | N#Cc1c(N)sc2c(F)ccc(-c3c(Cl)cc4c(N5CCC6(CCN6C(=O)n6cc(C(F)(F)F)nn6)C5)nc(OC[C@@]56CCCN5C[C@H](F)C6)nc4c3F)c12 (stereo partly drawn) [Compound 318, 2-amino-4-(6-chloro-8-fluoro-2-(((2R,7aS)-2-fluorotetrahydro-1H-pyrrolizin-7a(5H)-yl)methoxy)-4-(1-(4-(trifluoromethyl)-1H-1,2,3-triazole-1-carbonyl)-1,6-diazaspiro[3.4]octan-6-yl)quinazolin-7-yl)-7-fluorobenzo[b]thiophene-3-carbonitrile]
16 | < 5 | < 5 | < 5 | C[C@H](Oc1nc(N2CCC3(CCN3C(=O)c3ccnn3C)C2)c2cc(Cl)c(-c3ccc(F)c4sc(N)c(C#N)c34)c(F)c2n1)[C@@H]1CCCN1C (stereo partly drawn) [Compound 274, 2-amino-4-(6-chloro-8-fluoro-4-(1-(1-methyl-1H-pyrazole-5-carbonyl)-1,6-diazaspiro[3.4]octan-6-yl)-2-((S)-1-((S)-1-methylpyrrolidin-2-yl)ethoxy)quinazolin-7-yl)-7-fluorobenzo[b]thiophene-3-carbonitrile]

Row | Compound | IC50 (KRAS G12S) [µM] | IC50 (KRAS G12D) [µM] | IC50 (KRAS WT) [µM]
17 | N#Cc1c(N)sc2c(F)ccc(-c3c(Cl)cc4c(N5CCC6(CC5)CCN6C(=O)[C@@H]5N[C@H]5C5CC5)nc(OC[C@@]56CCCN5C[C@H](F)C6)nc4c3F)c12 [Compound 262, 2-amino-4-(6-chloro-4-(1-((2R,3S)-3-cyclopropylaziridine-2-carbonyl)-1,7-diazaspiro[3.5]nonan-7-yl)-8-fluoro-2-(((2R,7aS)-2-fluorotetrahydro-1H-pyrrolizin-7a(5H)-yl)methoxy)quinazolin-7-yl)-7-fluorobenzo[b]thiophene-3-carbonitrile] | < 5 | < 5 | < 5
